Data taken from patent US20250098679A1, “HERBICIDAL PYRIDONE DERIVATIVES” (SYNGENTA CROP PROTECTION AG, priority 2021, published 2025).

Tests used:
Assay type in all cases: in vivo
Settings in all cases: evaluated after 13 days
Zea mays (ZEAMX) [1] = experiment: Post-emergence Test, Zea mays (ZEAMX); set-up: key to percentage damage caused to the plant, ZEAMX (five-point scale): 5=81-100%, 4=61-80%, 3=41-60%, 2=21-40%, 1=0-20% damage
Procedure, shortened: (§1)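 Sown pots in a glasshouse (24/16 °C day/night, 14 h light, 65% humidity) were sprayed with compound in acetone/water (50:50) with 0.5% Tween 20, at 1000 g/ha unless otherwise stated. Damage was assessed 13 days after spraying and scored 1–5 (5=81-100%, 1=0-20%).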

[2] = test system: Ipomoea hederacea (IPOHE); experiment: Pre-emergence Test, Ipomoea hederacea (IPOHE)
Zea mays (ZEAMX) [3] = experiment: Pre-emergence Test, Zea mays (ZEAMX)
[4] = test system: Ipomoea hederacea (IPOHE); experiment: Post-emergence Test, Ipomoea hederacea (IPOHE); set-up: key to percentage damage caused to the plant, IPOHE (five-point scale): 5=81-100%, 4=61-80%, 3=41-60%, 2=21-40%, 1=0-20% damage
Procedure, shortened: as §1

[5] = test system: Echinochloa crus-galli (ECHCG); experiment: Pre-emergence Test, Echinochloa crus-galli (ECHCG)
Setaria faberi (SETFA) [6] = experiment: Pre-emergence Test, Setaria faberi (SETFA)
[7] = test system: Amaranthus palmeri (AMAPA); experiment: Pre-emergence Test, Amaranthus palmeri (AMAPA)
Setaria faberi (SETFA) [8] = experiment: Post-emergence Test, Setaria faberi (SETFA); set-up: key to percentage damage caused to the plant, SETFA (five-point scale): 5=81-100%, 4=61-80%, 3=41-60%, 2=21-40%, 1=0-20% damage
Procedure, shortened: as §1

[9] = test system: Amaranthus retoflexus (AMARE); experiment: Pre-emergence Test, Amaranthus retoflexus (AMARE)
[10] = test system: Amaranthus palmeri (AMAPA); experiment: Post-emergence Test, Amaranthus palmeri (AMAPA); set-up: key: 5=81-100%, 4=61-80%, 3=41-60%, 2=21-40%, 1=0-20% damage
Procedure, shortened: as §1

[11] = test system: Amaranthus retoflexus (AMARE); experiment: Post-emergence Test, Amaranthus retoflexus (AMARE); set-up: key to percentage damage caused to the plant, AMARE (five-point scale): 5=81-100%, 4=61-80%, 3=41-60%, 2=21-40%, 1=0-20% damage
Procedure, shortened: as §1

[12] = test system: Echinochloa crus-galli (ECHCG); experiment: Post-emergence Test, Echinochloa crus-galli (ECHCG); set-up: key to percentage damage caused to the plant, ECHCG (five-point scale): 5=81-100%, 4=61-80%, 3=41-60%, 2=21-40%, 1=0-20% damage
Procedure, shortened: as §1

SMILES | percentage damage caused to the plant, ZEAMX (five-point scale) (Zea mays (ZEAMX) [1]; 250 g/Ha) | percentage damage caused to the plant, ZEAMX (five-point scale) (Zea mays (ZEAMX) [1]; 1000 g/ha) | Pre-emergence Test IPOHE, percentage damage caused to the plant (five-point scale) ([2]; 250 g/Ha (*)) | Pre-emergence Test IPOHE, percentage damage caused to the plant (five-point scale) ([2]; 1000 g/ha) | Pre-emergence Test ZEAMX, percentage damage caused to the plant (five-point scale) (Zea mays (ZEAMX) [3]; 250 g/Ha (*)) | Pre-emergence Test ZEAMX, percentage damage caused to the plant (five-point scale) (Zea mays (ZEAMX) [3]; 1000 g/ha) | percentage damage caused to the plant, IPOHE (five-point scale) ([4]; 250 g/Ha) | percentage damage caused to the plant, IPOHE (five-point scale) ([4]; 1000 g/ha) | Pre-emergence Test ECHCG, percentage damage caused to the plant (five-point scale) ([5]; 250 g/Ha (*)) | Pre-emergence Test ECHCG, percentage damage caused to the plant (five-point scale) ([5]; 1000 g/ha) | Pre-emergence Test SETFA, percentage damage caused to the plant (five-point scale) (Setaria faberi (SETFA) [6]; 250 g/Ha (*)) | Pre-emergence Test SETFA, percentage damage caused to the plant (five-point scale) (Setaria faberi (SETFA) [6]; 1000 g/ha) | Pre-emergence Test AMAPA, percentage damage caused to the plant (five-point scale) ([7]; 250 g/Ha (*)) | Pre-emergence Test AMAPA, percentage damage caused to the plant (five-point scale) ([7]; 1000 g/ha) | percentage damage caused to the plant, SETFA (five-point scale) (Setaria faberi (SETFA) [8]; 250 g/Ha) | percentage damage caused to the plant, SETFA (five-point scale) (Setaria faberi (SETFA) [8]; 1000 g/ha) | Pre-emergence Test AMARE, percentage damage caused to the plant (five-point scale) ([9]; 250 g/Ha (*)) | percentage damage caused to the plant, AMAPA (five-point scale) ([10]; 250 g/Ha) | percentage damage caused to the plant, AMARE (five-point scale) ([11]; 250 g/Ha) | percentage damage caused to the plant, ECHCG (five-point scale) ([12]; 250 g/Ha) | other results
CCn1c(Cn2cc(C(F)F)cn2)cc(=O)c(C(=O)O)c1-c1ccc(Cl)c(Cl)c1 [Compound 109, 2-(3,4-dichlorophenyl)-6-[[4-(difluoromethyl)pyrazol-1-yl]methyl]-1-ethyl-4-oxo-pyridine-3-carboxylic acid] | 1 (1=0-20%) | 3 (3=41-60%) | 1 (1=0-20%) | 4 (4=61-80%) | 0 | 0 | 2 (2=21-40%) | 3 (3=41-60%) | 3 (3=41-60%) | 5 (5=81-100%) | 2 (2=21-40%) | 5 (5=81-100%) | 0 | 0 | 1 (1=0-20%) | 4 (4=61-80%) | 0 | 0 | 0 | 3 (3=41-60%) | Pre-emergence Test AMARE, percentage damage caused to the plant (five-point scale) ([9]; 1000 g/ha): 0; percentage damage caused to the plant, AMAPA (five-point scale) ([10]; 1000 g/ha): 3 (3=41-60%); percentage damage caused to the plant, AMARE (five-point scale) ([11]; 1000 g/ha): 1 (1=0-20%); percentage damage caused to the plant, ECHCG (five-point scale) ([12]; 1000 g/ha): 4 (4=61-80%)
CCn1c(Cn2cncn2)cc(=O)c(C(=O)O)c1-c1ccc(Cl)c(Cl)c1 [Compound 49, 2-(3,4-dichlorophenyl)-1-ethyl-4-oxo-6-(1,2,4-triazol-1-ylmethyl)pyridine-3-carboxylic acid] | 0 | 0 |  | 0 |  | 0 | 1 (1=0-20%) | 0 |  | 1 (1=0-20%) |  | 0 |  | 1 (1=0-20%) | 1 (1=0-20%) | 2 (2=21-40%) |  | 0 | 0 | 0 | Pre-emergence Test AMARE, percentage damage caused to the plant (five-point scale) ([9]; 1000 g/ha): 2 (2=21-40%); percentage damage caused to the plant, AMAPA (five-point scale) ([10]; 1000 g/ha): 1 (1=0-20%); percentage damage caused to the plant, AMARE (five-point scale) ([11]; 1000 g/ha): 0; percentage damage caused to the plant, ECHCG (five-point scale) ([12]; 1000 g/ha): 2 (2=21-40%)
CCn1c(Cn2ncc(Cl)c2C2CC2)cc(=O)c(C(=O)O)c1-c1ccc(Cl)c(Cl)c1 [Compound 93, 6-[(4-chloro-5-cyclopropyl-pyrazol-1-yl)methyl]-2-(3,4-dichlorophenyl)-1-ethyl-4-oxo-pyridine-3-carboxylic acid] | 1 (1=0-20%) |  | 0 |  | 0 |  | 1 (1=0-20%) |  | 0 |  | 0 |  | 2 (2=21-40%) |  | 1 (1=0-20%) |  | 1 (1=0-20%) | 1 (1=0-20%) | 1 (1=0-20%) | 2 (2=21-40%) | 
